Data set [1] has as its system foreleg flexor muscles. Conditions: mouse, in vivo.
For data set [2], the system named is orbicularis oculi muscles. The conditions noted are these: guinea pig, in vivo.
The conditions of data set [3]: in vivo; cited from earlier work.

The structures appear in SMILES notation.

`O=c1c(-c2ccc(O)cc2)coc2cc(O)cc(O)c12` [genistein, 5,7-dihydroxy-3-(4-hydroxyphenyl)-4H-1-benzopyran-4-one]: the “Grip strength recovery (percent of untreated baseline grip strength)” value in data set [1] is listed as “retarded”. Moreover, in data set [2], the “Delay of time to 50% recovery of blinks (blink amplitude)” value is on record as “approximately 10 days”, the “Recovery of blinks after surgery” value is “full recovery within a week” and the “Reduction of blink amplitude after surgery” value is ≤ 10%. Besides, the “Tolerability of dietary intake” value in data set [3] is given as “without obvious ill effects”.

Source of the values: patent US20040228872A1 (priority 2003, published 2004).
